How the values were obtained:
[1] = test system: T-cells derived from haemophiliac patients; experiment: T-cell proliferation with FVIII specific T cell lines from haemophiliac patients; format: cell-based, human; details: T-cells from haemophiliac blood
Text: In a further embodiment of this approach, the inventors have provided a method whereby the FVIII sequence is scanned for the presence and location of T-cell epitopes using ex vivo biological T-cell assays where the T-cells are derived from haemophiliac patients. For a proportion of such patients the FVIII protein constitutes a foreign protein and a potent antigen in vivo. The inventors have established that it is possible to derive polyclonal and in principle mononclonal T-cell lines in vitro from the PBMC of such individuals and these lines may be used as effective reagents in the mapping of T-cell epitopes within the FVIII protein. […]
In the present case in the synthetic peptides were analysed using a system of pools each containing 8 different peptide sequences. […] These cells are stimulated with antigen (e.g. synthetic peptide or whole protein) using most preferably autologous antigen presenting cells as previously for around 4 days and the subsequent proliferative response (if any) is measured thereafter. […] In this way any individual T-cell epitope is represented in 2 separate pools and induced proliferation will be detected from treatments using both of those pools. Where a proliferative response is detected to any given peptide pool, the peptide pool is decoded repeating the assay using the individual pool members in isolation. […]

naïve human T-cells = experiment: Naïve T cell epitope map: ex vivo T-cell proliferation using PBMC from healthy donors; format: cell-based; details: cells of a healthy non haemophiliac individual
Text: This approach has proven to be a particularly effective method and is disclosed herein as an embodiment of the invention. The method can be applied to test part of the sequence, for example a FVIII protein lacking all or part of the B-domain; the method can be applied to selected regions of the sequence, for example a sub-set of FVIII peptides such as all or some of those listed in FIG. 1; or the method may be applied to test whole FVIII sequence. In the present studies, the method has involved the testing of overlapping FVIII-derived peptide sequences in a scheme so as to scan and test a FVIII sequence lacking the B-domain. The synthetic peptides are tested for their ability to evoke a proliferative response in human T-cell cultured in vitro. […] The stimulation index is conventionally derived by division of the proliferation score (e.g. counts per minute of radioactivity if using ^3H-thymidine incorporation) measured to the test peptide by the score measured in cells not contacted with a test peptide.
Blood from 40 healthy HLA-DR typed donors was used to isolate PBMC which were used to screen individual FVIII peptides at two concentrations (1 and 5 μM). […] MHC allotypes were detected using
PBMC contain physiological numbers of naïve T cells and antigen presenting cells. […] Cultures were harvested onto filtermats and the cpm/well was determined using a Wallac Microplate Beta counter.

Sequence | proliferation of ex vivo T-cells [1] | proliferation of ex vivo T-cells (naïve human T-cells)
ISQFIIMYSLDGKKW [Peptide P10] | able to evoke proliferation of ex vivo T-cells | able to evoke proliferation of ex vivo T-cells
IARYIRLHPTHYSIRSTLRM [Peptide P11] | active | 
